Patent US20250327793A1, “METHODS OF IDENTIFYING COMPOUNDS THAT MODULATE LAUNDRY MALODOR, MOLDY MALODOR, OR SWEAT MALODOR” (Firmenich SA, priority 2017, published 2025)

Legend:
Olfr398 = Olfr398 (Mus musculus, UniProt Q8VFY0); assay: 1-octen-3-ol concentration-dependent activation of Olfr398: OR-dependent cAMP accumulation in a cell-based assay (functional dose-response); settings: agonist, mouse Olfr398 (SEQ ID NO: 65), N-terminal FLAG/Rho/Lucy tags, HEK 293T cells, Gαolf, FIG. 6
Olfr120 = Olfr120 (Mus musculus, UniProt Q7TRJ4); assay: 1-octen-3-ol concentration-dependent activation of Olfr120: OR-dependent cAMP accumulation in a cell-based assay (functional dose-response); settings: agonist, mouse Olfr120 (SEQ ID NO: 67), N-terminal FLAG/Rho/Lucy tags, HEK 293T cells, Gαolf, FIG. 6
Chain of Olfr120 (Q7TRJ4 1-321): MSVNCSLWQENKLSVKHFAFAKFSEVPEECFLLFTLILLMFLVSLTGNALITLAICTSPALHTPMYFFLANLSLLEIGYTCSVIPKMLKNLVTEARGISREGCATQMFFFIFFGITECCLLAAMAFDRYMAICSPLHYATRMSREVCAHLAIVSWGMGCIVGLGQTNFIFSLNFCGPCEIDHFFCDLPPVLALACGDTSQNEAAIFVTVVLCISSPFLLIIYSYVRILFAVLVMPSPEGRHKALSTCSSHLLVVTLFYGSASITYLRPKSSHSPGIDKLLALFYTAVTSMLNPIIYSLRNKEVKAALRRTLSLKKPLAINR
Source text: (§1) The detection method pertains to OR-dependent accumulation of cAMP in said cells, as a result of OR activation by 1-octen-3-ol.
(§2) In a further embodiment, to complete the deorphanization process, the candidate OR genes are further expressed in vitro for confirmation of activity against the compounds used to isolate the olfactory sensory neurons and other structurally-related compounds of interest. […]
(§3) Neurons that were activated by DMTS were further isolated for full transcriptome analysis to identify the responsive odorant receptor. […] Amplified cDNA was then used to generate an Illumina cDNA library for Next-Generation-Sequencing and the generation of 100 base pair single read sequences. […]

Olfr93 = Olfr93 (Mus musculus, UniProt B9EI77); assay: 1-octen-3-ol concentration-dependent activation of Olfr93: OR-dependent cAMP accumulation in a cell-based assay (functional dose-response); settings: agonist, mouse Olfr93 (SEQ ID NO: 63), N-terminal FLAG/Rho/Lucy tags, HEK 293T cells, Gαolf, FIG. 6
Chain of Olfr93 (B9EI77 1-312): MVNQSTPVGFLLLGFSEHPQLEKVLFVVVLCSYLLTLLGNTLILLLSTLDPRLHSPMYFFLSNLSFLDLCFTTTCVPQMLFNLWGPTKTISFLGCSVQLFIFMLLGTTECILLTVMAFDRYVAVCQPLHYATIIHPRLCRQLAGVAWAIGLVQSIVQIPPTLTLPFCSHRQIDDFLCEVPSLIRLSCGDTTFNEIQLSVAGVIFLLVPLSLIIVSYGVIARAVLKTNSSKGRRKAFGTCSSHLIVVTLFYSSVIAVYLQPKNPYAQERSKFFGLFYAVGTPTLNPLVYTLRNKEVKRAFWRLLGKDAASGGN
Source text: as §1, §2, §3

Olfr1364 = Olfr1364 (Mus musculus, UniProt Q5SZS9); assay: 1-octen-3-ol concentration-dependent activation of Olfr1364: OR-dependent cAMP accumulation in a cell-based assay (functional dose-response); settings: agonist, mouse Olfr1364 (SEQ ID NO: 69), N-terminal FLAG/Rho/Lucy tags, HEK 293T cells, Gαolf, FIG. 6
Chain of Olfr1364 (Q5SZS9 9-314): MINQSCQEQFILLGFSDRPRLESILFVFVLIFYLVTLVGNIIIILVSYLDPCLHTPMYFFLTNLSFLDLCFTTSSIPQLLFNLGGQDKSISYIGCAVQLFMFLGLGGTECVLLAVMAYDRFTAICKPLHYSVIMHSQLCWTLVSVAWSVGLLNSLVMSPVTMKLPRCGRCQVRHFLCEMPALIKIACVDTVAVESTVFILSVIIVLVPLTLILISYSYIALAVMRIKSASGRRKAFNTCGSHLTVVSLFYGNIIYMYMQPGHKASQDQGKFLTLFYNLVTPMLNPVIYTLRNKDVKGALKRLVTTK
Source text: as §1, §2, §3

OR2W1 = target: T1, OR2W1 (Homo sapiens, UniProt Q9Y3N9, M81V); assay: Concentration-dependent activation of OR2W1: OR-dependent cAMP accumulation in a cell-based assay (functional dose-response); set-up: expressed in transfected cells; host or cells: HEK293T; settings: agonist transpirol, human OR2W1 (SEQ ID NO: 2), HEK293T cells expressing Golf, FIG. 7
T1 sequence (Q9Y3N9 1-320 M81V): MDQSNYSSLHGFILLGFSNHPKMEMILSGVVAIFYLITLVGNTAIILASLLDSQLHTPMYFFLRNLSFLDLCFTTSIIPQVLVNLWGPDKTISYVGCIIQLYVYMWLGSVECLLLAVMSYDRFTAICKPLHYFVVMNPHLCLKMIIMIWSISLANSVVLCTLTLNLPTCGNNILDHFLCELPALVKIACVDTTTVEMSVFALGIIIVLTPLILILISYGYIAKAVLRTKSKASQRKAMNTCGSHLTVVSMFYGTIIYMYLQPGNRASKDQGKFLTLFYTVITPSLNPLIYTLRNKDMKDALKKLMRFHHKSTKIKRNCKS
Source text: (§4) The detection method pertains to OR-dependent accumulation of cAMP in said cells, as a result of OR activation by transpirol.
(§5) The detection method pertains to OR-dependent accumulation of cAMP in said cells, as a result of OR activation by 3-methyl-2-hexenoic acid.
as §2
In the second method, a panel of odorant receptors comprising the 400 putatively functional human receptor repertoire were transfected into a cultured human HEK293T cell line described in WO2014/210585 expressing Human olfactory G-protein alpha subunit (Golf—SEQ. ID No. 49) and coupled to a cyclicAMP reporter. Said panel of in vitro odorant receptors were exposed to MCSs and the level of cAMP signal was measured for each receptor. […]

Olfr263 = Olfr263 (Mus musculus, UniProt Q7TQT8); assay: Concentration-dependent activation of Olfr263: OR-dependent cAMP accumulation in a cell-based assay (functional dose-response); settings: agonist transpirol, mouse Olfr263 (SEQ ID NO: 22), N-terminal FLAG/Rho/Lucy tags, HEK 293T cells, Gαolf, FIG. 7
Chain of Olfr263 (Q7TQT8 1-317): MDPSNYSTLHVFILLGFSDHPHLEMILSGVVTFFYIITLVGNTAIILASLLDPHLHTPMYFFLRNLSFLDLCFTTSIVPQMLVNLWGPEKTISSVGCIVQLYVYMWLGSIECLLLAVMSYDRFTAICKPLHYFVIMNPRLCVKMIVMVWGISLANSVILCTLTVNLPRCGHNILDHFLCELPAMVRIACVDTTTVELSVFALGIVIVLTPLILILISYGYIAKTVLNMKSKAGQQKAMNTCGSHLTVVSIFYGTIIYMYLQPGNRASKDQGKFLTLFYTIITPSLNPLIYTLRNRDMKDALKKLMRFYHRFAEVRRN
Source text: as §4, §5, §2, §3

Olfr46 = Olfr46 (Mus musculus, UniProt Q2VPD7); assay: Transpirol concentration-dependent activation of Olfr46: OR-dependent cAMP accumulation in a cell-based assay (functional dose-response); settings: agonist, mouse Olfr46 (SEQ ID NO: 75), N-terminal FLAG/Rho/Lucy tags, HEK 293T cells, Gαolf, FIG. 7
Chain of Olfr46 (Q2VPD7 1-310): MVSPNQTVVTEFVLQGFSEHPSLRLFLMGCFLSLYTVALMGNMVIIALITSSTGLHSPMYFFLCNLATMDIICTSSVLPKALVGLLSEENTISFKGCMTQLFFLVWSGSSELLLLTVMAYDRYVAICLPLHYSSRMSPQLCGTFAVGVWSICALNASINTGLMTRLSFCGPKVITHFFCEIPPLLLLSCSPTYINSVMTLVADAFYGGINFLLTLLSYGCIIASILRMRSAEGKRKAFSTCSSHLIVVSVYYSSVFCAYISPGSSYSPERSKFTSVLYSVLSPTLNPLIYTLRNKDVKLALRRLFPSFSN
Source text: as §4, §2, §3

Chain of Olfr398 (Q8VFY0 1-314): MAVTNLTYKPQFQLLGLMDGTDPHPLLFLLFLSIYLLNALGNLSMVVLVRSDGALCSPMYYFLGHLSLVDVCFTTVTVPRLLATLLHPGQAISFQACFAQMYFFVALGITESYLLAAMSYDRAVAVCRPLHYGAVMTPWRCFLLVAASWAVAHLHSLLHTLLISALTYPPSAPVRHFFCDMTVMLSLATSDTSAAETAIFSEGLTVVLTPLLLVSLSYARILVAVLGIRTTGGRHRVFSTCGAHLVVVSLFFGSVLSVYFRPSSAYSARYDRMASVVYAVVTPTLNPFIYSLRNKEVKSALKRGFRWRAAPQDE

C=CC(O)CCCCC (stereo not shown) [1-Octen-3-ol, 1-octen-3-ol]
EC50 (Olfr398): 11.4 µM
EC50 (Olfr120): 26 µM
EC50 (Olfr93): 0.69 µM
EC50 (Olfr1364): 113 µM

CCCC(C)(S)CCO (stereo not shown) [Transpirol, 3-methyl-3-sulphanylhexanol]
EC50 (OR2W1): 3.1 µM
EC50 (Olfr263): 2.3 µM
EC50 (Olfr46): 170 µM
